Source: patent US10765684B2, “Reduction of side effects from aromatase inhibitors used for treating breast cancer” (HAVAH THERAPEUTICS PTY LTD, priority 2005, dated 2020)

What was measured:
post-menopausal patients [1] = settings: in vivo
From the text: Another embodiment of this invention involves measuring cognitive function, including processing speed, working memory, visual memory, and verbal memory.
Five post-menopausal women having similar patient socio-demographic characteristics and ranging in age from 49 years to 56 years (median age 54) were selected for study. Each woman had been diagnosed with node-negative estrogen receptor and PR (Progesterone Receptor) positive BCa (Breast cancer), with tumor sizes ranging from 1.9 cm to 2.3 cm (median tumor size of 2.1 cm) and selected post-surgery (e.g., mastectomy, lumpectomy, or quadrantectomy for primary breast cancer) and post-chemotherapy. […]
Each woman selected was subjected to four weeks of aromatase inhibitor therapy (anastrozole 1 mg (ARIMIDEX®) orally as a tablet once a day), and thereafter to an additional eight weeks of the same aromatase inhibitor therapy in combination with the oral administration of 40 mg of testosterone undecanoate as a tablet once a day. During this study, side effects associated with aromatase inhibitor treatment were measured at three separate times: prior to the first week of aromatase inhibitor therapy, following the fourth week of aromatase inhibitor therapy but before administration of testosterone undecanoate was begun, and following the eighth week of combined aromatase inhibitor and androgen replacement therapy. […]

post-menopausal patients [2] = system: post-menopausal patients; design: species or system post-menopausal women; settings: in vivo
From the text: An endocrine subscale (FACT-ES) to accompany a well-validated QOL measure called the FACT-B (Brady, M J., et al., Journal of Clinical. Oncology., Vol. 15, No. 3 (March 1997) pp. 974-986, which is incorporated in its entirety) was developed specifically for use in trials using drugs likely to cause endocrine related symptoms. See Fallowfield, L J, et al., Breast Cancer Research and Treatment, Vol. 55, No. 2, 1999, pp. 189-199, which is incorporated herein by reference in its entirety. Also, FACT-ES is a validated questionnaire designed to measure quality of life of women with breast cancer who are being treated with endocrine therapies. It consists of the FACT-B questionnaire plus an additional endocrine subscale. FACT-B (breast) consists of the FACT-G (general) QOL tool for cancer patients plus the Breast Cancer subscale. FACT-ES has been developed to measure QOL in patients receiving endocrine therapy for breast cancer. This instrument (FACT-ES) should, therefore, be sensitive to QOL changes in patients in this trial. […]
At the three assessment times during the study, the quality of life for each patient was assessed using standard Functional Assessment of Cancer Therapy-Endocrine Symptoms (FACT-ES) questionnaire (See FIG. 8), which questionnaire is a standard method for determining the occurrence and prominence of treatment-related symptoms and side-effects in breast cancer patients. […]

post-menopausal patients [3] = settings: in vivo; remark: listed apart in the source
From the text: The Western Ontario and McMaster Universities (WOMAC) Osteoarthritis Index™ consists of three VAS, one each pertaining to pain, joint stiffness and physical function. This then gives the WOMAC™ osteoarthritis index composite score.
Five post-menopausal women having similar patient socio-demographic characteristics and ranging in age from 49 years to 56 years (median age 54) were selected for study. […]
(§1) Each woman selected was subjected to four weeks of aromatase inhibitor therapy (anastrozole 1 mg (ARIMIDEX®) orally as a tablet once a day), and thereafter to an additional eight weeks of the same aromatase inhibitor therapy in combination with the oral administration of 40 mg of testosterone undecanoate as a tablet once a day. During this study, side effects associated with aromatase inhibitor treatment were measured at three separate times: prior to the first week of aromatase inhibitor therapy, following the fourth week of aromatase inhibitor therapy but before administration of testosterone undecanoate was begun, and following the eighth week of combined aromatase inhibitor and androgen replacement therapy.
The y axis is a visual analogue pain scale. Specifically, the y axis indicates a percentage score of a subjective quantification of pain measured out of 100.

[4] = serum hormone levels in post-menopausal breast cancer patients; assay type: in vivo, post-menopausal women; settings: versus pre-therapy, FIG. 2
From the text: Five post-menopausal women having similar patient socio-demographic characteristics and ranging in age from 49 years to 56 years (median age 54) were selected for study. Each woman had been diagnosed with node-negative estrogen receptor and PR (Progesterone Receptor) positive BCa (Breast cancer), with tumor sizes ranging from 1.9 cm to 2.3 cm (median tumor size of 2.1 cm) and selected post-surgery (e.g., mastectomy, lumpectomy, or quadrantectomy for primary breast cancer) and post-chemotherapy. None had been subjected to previous attempts at hormone replacement therapy.
as §1
The y axis is picomoles/L of serum.

[5] = cited from earlier work
[6] = cited from earlier work; remark: listed apart in the source

## CC(C)(C#N)c1cc(Cn2cncn2)cc(C(C)(C)C#N)c1 [Al only, anastrozole]
post-menopausal patients [1]
  cognitive function scores (processing speed, working memory, visual memory, verbal memory; mean Z score): decreased across all four ability types
post-menopausal patients [2]
  quality of life as measured by FACT-ES questionnaires: decreased
post-menopausal patients [3]
  reported arthralgia symptoms: elevated levels of arthralgia
[4]; following the fourth week of aromatase inhibitor therapy (anastrozole 1 mg once a day)
  average estradiol (E2) serum level: drops significantly
[4]; following the fourth week of aromatase inhibitor therapy
  remainder of the serum hormone levels (T, FreeT, DHT): relatively unchanged

## CCC1(c2ccc(N)cc2)CCC(=O)NC1=O (stereo not shown) [aminoglutethimide]
[5]; Cash, Brough et al 1967
  tolerability: poorly tolerated
[5]; limited the use of the drug
  adrenal suppression: marked adrenal suppression

## CCCCCCCCCCC(=O)O[C@H]1CC[C@H]2[C@@H]3CCC4=CC(=O)CC[C@]4(C)[C@H]3CC[C@]12C [testosterone undecanoate]
[6]; by-passes the liver via the lymphatic system
  oral bioavailability: orally bioavailable

## C[C@]12CC[C@H]3[C@@H](CCC4=CC(=O)CC[C@@]43C)[C@@H]1CC[C@@H]2O [testosterone]
[6]; oral delivery
  testosterone broken down in the liver as it is absorbed from the gut: 80-90%
[6]; oral
  testosterone broken down in the intestines by aromatase and other metabolic pathways: approximately 85%
